Results reported in EP0096293A1, “N-acetylglucosamine derivatives, process for their preparation and their use to combat malaria” (BEHRINGWERKE Aktiengesellschaft, priority 1982, dated 1983).
Counter-ions that a name gives are not always drawn.

Tests used:
[1] = tested on: P. falciparum; assay: Intraerythrocytic growth of malaria parasites (toxicity to the parasite); assay type: cell-based; conditions: applicant's own finding, contrary to Vanderberg et al.
[2] = tested on: P. falciparum-Merozoiten; conditions: synchronous in vitro culture, addition of the sugar; findings of Vanderberg et al. (Exp. Parasitol. 1981); cited from earlier work
[3] = tested on: P. falciparum; conditions: findings of Vanderberg et al. (Exp. Parasitol. 1981); cited from earlier work
[4] = tested on: P. falciparum-Merozoiten; assay: Invasion of human erythrocytes by P. falciparum merozoites in synchronous in vitro culture; assay type: cell-based; conditions: compared with other methyl glycosides (methyl gluco-, galacto-, fuco-, mannopyranosides)

Question: Which “intraerythrozytäre Parasiten-Wachstum (toxisch)” value [1] does the source give for `CC(=O)N[C@H]1C(O)O[C@H](CO)[C@@H](O)[C@@H]1O` (stereo partly drawn) [DGlcNAc, N-Acetyl-D-glucosamin] here?
Answer: The value was “toxisch”.

Question: What about the “Befall von Humanerythrozyten durch P. falciparum-Merozoiten” value [2] of the same compound?
Answer: The value was “gehemmt”.

Question: What about the “intraerythrozytäre Wachstum der Malaria-Parasiten” value [3] of the same compound?
Answer: The value was “nicht aber durch N-Acetyl-D-Glucosamin gehemmt”.

Question: With `N[C@H]1C(O)O[C@H](CO)[C@@H](O)[C@@H]1O` (stereo partly drawn) [DGlcNH3Cl, D-Glucosaminhydrochlorid] as the compound, how does the “Befall von Humanerythrozyten durch P. falciparum-Merozoiten” value [2] read?
Answer: Its value is “gehemmt”.

Question: What about the “intraerythrozytäre Wachstum der Malaria-Parasiten” value [3] of the same compound?
Answer: Its value is “gehemmt”.

Question: Which results are given for `C[C@@H]1OC(O)[C@@H](O)[C@H](O)[C@@H]1O` (stereo partly drawn) [L-Fucose]?
Answer: intraerythrozytäre Parasiten-Wachstum (toxisch) [1]: nicht toxisch; Befall von Humanerythrozyten durch P. falciparum-Merozoiten [2]: gehemmt; intraerythrozytäre Wachstum der Malaria-Parasiten [3]: gehemmt

Question: Which results are given for `CO[C@H]1O[C@H](CO)[C@@H](O)[C@H](O)[C@H]1NC(C)=O` [α-DGlcNAcOMe, Methyl-2 -acetamido- 2 -desoxy-alpha oder beta-D-glucopyranosid]?
Answer: invasionsinhibierende Wirkung [4]: stark erhöhte invasionsinhibierende Wirkung; intraerythrozytäre Parasiten-Wachstum (toxisch) [1]: nicht toxisch

Question: What does the source list for `CO[C@@H]1O[C@H](CO)[C@@H](O)[C@H](O)[C@H]1NC(C)=O` [β-DGlcNAcOMe, Methyl-2 -acetamido- 2 -desoxy-alpha oder beta-D-glucopyranosid]?
Answer: invasionsinhibierende Wirkung [4]: stark erhöhte invasionsinhibierende Wirkung; intraerythrozytäre Parasiten-Wachstum (toxisch) [1]: nicht toxisch
